Data as given in patent publication US20140193521A1, “Drug Delivery Systems and Method of Reducing Foal Infection by Treating Mares with Gallium Salts” (priority 2011, published 2014).

What was measured:
R. equi [1] = conditions: cited from earlier work
[2] = Safety / adverse effects of gallium nitrate in horses; assay type: in vivo
Description: (§1) For example, without limitations, two adult horses were given a single dose of gallium nitrate by nasogastric tube at a dose of 9.2 mg/kg at 1% gallium nitrate concentration. […] Based on tis work, two more horses were dosed with 9.2 mg/kg of daily for 6 days to determine steady state values. […] There were traces of gallium present in both the red blood cells (“RBC”) and smaller amounts in the serum prior to any medication administration. It appears to concentrate in the RBC and move into the serum. The significance of this is unknown.

R. equi [3] = conditions: reported; cited from earlier work
virulent R. equi [4] = test: Virulent R. equi in feces of mares by real-time TaqMan PCR of vapA gene; assay type: in vivo, Rhodococcus equi
Description: As part of a non-limiting example of an embodiment of the invention, virulent R. equi in feces was measured in the feces using the following method. Two milliliters of PBS were added to 1 g of each fecal sample in a conical tube. Thereafter, each sample was vortexed for 10 seconds and centrifuged at 13,000× g for 1 minute. In order to minimize contamination, all pipetting steps were performed in a laminar flow cabinet. Nucleic acid purification from 180 μl of supernatant fluid was performed using an automated nucleic acid extraction system (CAS-1820 X-tractor Gene, Corbett Life Science, Sydney, Australia) according to the manufacturer's recommendations. A real-time TaqMan PCR assay for R. equi has been established and validated. The assay is based on the detection of a specific 75 base-pair long product of the vapA gene of R. equi (GenBank accession number AF116907; oligonucleotides: forward primer […], reverse primer […], probe […]). Each PCR reaction contained 400 nM of each primer, 80 nM of the TaqMan probe and mastermix (TaqMan Universal PCR Mastermix, Applied Biosystems, Foster City, Calif.) and 1 μL of the gDNA sample in a final volume of 12 μL. […] DNA extraction and amplification efficiency were verified by quantitating the universal bacterial 16S rRNA gene. Absolute quantitation of R. equi target molecules was performed using a standard curve and expressed as R. equi vapA target genes per 1 g of feces. […]
The number of CFU/g of either virulent R. equi in feces was estimated using real-time PCR. Because these samples were collected serially from individual mares, these longitudinal data were analyzed using mixed-effects modeling, with time (number of days since last known breeding date) and treatment group modeled as fixed effects, and individual mare modeled as a random effect. […] The count of positive samples were determined for each mare, and Poisson regression analysis was used to examine the effects of treatment. […]

[5] = pregnant mice, cited from earlier work
[6] = 300 to 1500 mg/kg intraperitoneally; cited from earlier work
[7] = Whole blood and serum gallium in horses after gallium nitrate by nasogastric tube / oral dosing; assay type: in vivo
Description: FIG. 1 is a graph showing whole blood concentrations (micromoles/g) of horses in which gallium nitrate was administered daily after pulling blood for two days pre-administration. The horses were treated for five days.
(§2) For example, without limitation, in horses fed the same amount, the blood concentration increased from 0.0000231 micromoles/g to 0.0009004 micromoles/g well below what is needed to kill R. equi in the blood, but is a […] increase in blood concentration over time. Previous in vitro data found anything over 0.050 micromoles/ml killed R. equi in culture, and higher concentrations worked better. Administering oral gallium nitrate to mares daily achieved about 1.5 to 7.1 micromoles of gallium per gram of dry feces. This also led to a reduction in the concentration of R. equi in the feces of the mares.
as §1

virulent R. equi [8] = test: Fecal concentration of virulent R. equi in peripartum mares (culture, colony immunoblot); assay type: in vivo, Rhodococcus equi
Description: (§3) As part of a non-limiting example of an embodiment of the invention, the effect of oral GaN on the concentrations of virulent R. equi in the feces of the mares was determined. Twenty-one horses were randomly assigned in a paired block design to ensure that 10 mares were part of the treated group and 11 mares were part of the control group. These twenty-one Arabian mares were treated daily with either oral gallium nitrate or placebo. Fecal samples were collected at day 320 of gestation (time 1), the week before foaling (time 2), and the week after foaling (time 3). Airborne concentration of R. equi were measured in the stall within 6 hours post foaling using a microbial air sampling system into which standard (100-mm) culture plates with a media selective for R. equi have been loaded. This sample size of mares was selected on the basis of power calculations using the following assumptions: (a) significance level of P=0.05; (b) statistical power of 90%; (c) a mean of 1×10^4 colony forming units (cfu) per gram of feces among control mares; (d) a mean of 1×10^3 cfu per gram of feces among principal mares; and (e) standard deviations of 1×10^4 and 1×10^3 for the control and principal groups, respectively. The values for fecal concentrations were made on the basis of prior experiences of a collaborator. The total number of R. equi colonies on a plate was determined by morphologic identification; additionally, 10 colonies identified as R. equi each month were tested by PCR to confirm that the isolates are R. equi.
(§4) To determine the number of virulent colonies on each plate, a modified colony immunoblot method was used, as previously described (E.g., Grimm M B, Cohen N D, Slovis N M, et al. Evaluation of mares from a Thoroughbred breeding farm as a source of Rhodococcus equi for their foals using quantitative culture and a colony immunoblot assay. Am J Vet Res 2007; 68:63-71). […]
Concentrations of total R. equi were determined by morphological characteristics. The concentration of virulent R. equi was determined using a modified colony immunoblot method. […]

[9] = Fecal concentration of gallium in mares given oral gallium nitrate daily; assay type: in vivo; conditions: 9.2 mg/kg of 1% GaN daily from day 320
From the text: FIG. 3 is a graph showing fecal concentration of gallium in ppm of gram of feces in control mares versus treated.
as §2
as §4, with “68:63-71). Briefly, this procedure entails applying nitrocellulose membranes to culture plates to transfer bacterial surface proteins, blotting the membranes using a murine monoclonal antibody against the vapA protein, and then using a labeled secondary antibody to detect the presence of vapA-positive (i.e. virulent) colonies.” for “68:63-71).”

R. equi [10] = test: Airborne concentration of R. equi in foaling stalls shortly after foaling; assay type: in vivo, Rhodococcus equi; conditions: stall air after foaling
Description: as §3, with “This sample size of mares was selected on the basis of power calculations using the following assumptions: (a) significance level of P=0.05; (b) statistical power of 90%; (c) a mean of 1×10^4 colony forming units (cfu) per gram of feces among control mares; (d) a mean of 1×10^3 cfu per gram of feces among principal mares; and (e) standard deviations of 1×10^4 and 1×10^3 for the control and principal groups, respectively. The values for fecal concentrations were made on the basis of prior experiences of a collaborator.” left out
As part of a non-limiting example of an embodiment of the invention, the following method was employed to determine the effect of oral GAN on the airborne concentration of virulent R. equi in foaling stalls shortly after birth. […] The number of total and virulent R. equi counted on each plate represented the airborne concentrations (cfu/1,000 liters of air). […]

R equi = conditions: administered to the foal; cited from earlier work
[11] = administered to the foal; cited from earlier work

O=[N+]([O-])[O-].O=[N+]([O-])[O-].O=[N+]([O-])[O-].[Ga+3] [gallium nitrate]
concentration that killed R. equi in culture (R. equi [1]; previous in vitro data): over 0.050 micromoles/ml | effect on growth of R. equi grown in media (R. equi [1]; reported): significant inhibition in growth and to even kill R. equi | adverse effects in dosed horses ([2]; 9.2 mg/kg single dose or daily for 6 days): None of the horses showed any adverse effects | adverse effects in pregnant mares ([2]; from conception through foaling): no demonstrable adverse effects | adverse event claims in field use ([2]; used in over 10,000 horses): not been a single claim of any adverse event | R. equi growth in experimentally infected mice (R. equi [3]): decrease R. equi growth | highest level of virulent R. equi in feces in any treated mare (virulent R. equi [4]): 17,500 CFU/g | level of virulent R. equi in feces in most treated mares (virulent R. equi [4]): ≤ 1,600 CFU/g | level of virulent R. equi in feces in several treated mares (virulent R. equi [4]): almost undetectable levels | adverse effects in the fetus ([5]; 50 mg/kg and below): no adverse effects | fetal malformations ([5]; 100 mg/kg): cleft palate and renal hypoplasia were increased | effect on regeneration of bone and cartilage [6]: dose dependent effect | whole blood concentrations following gallium nitrate administration (FIG. 1) ([7]; 9.2 mg/kg daily for 6 days, two horses): increased | increase in blood concentration over time ([7]; horses): 250% | blood concentration of gallium, starting value ([7]; horses, value the concentration increased from): 0.0000231 µmol/g | blood concentration of gallium, after feeding ([7]; horses, value the concentration increased to): 0.0009004 µmol/g | time of peak gallium in whole blood and serum ([7]; single dose 9.2 mg/kg, 1% gallium nitrate, nasogastric tube): around 24 hours | time by which absorption of gallium was demonstrated ([7]; single dose 9.2 mg/kg, 1% gallium nitrate, nasogastric tube, whole blood and serum): ≤ 6 h | concentration of R. equi in the feces of the mares (virulent R. equi [8]; oral gallium nitrate daily): reduction | concentrations of virulent R. equi in feces, treatment group compared to control (virulent R. equi [8]; time 3, week after foaling, P<0.05): significantly lower | concentrations of virulent R. equi in feces, time 3 versus time 1 in treatment group (virulent R. equi [8]; week after foaling versus day 320 of gestation, P<0.05): significantly (P<0.05) lower | fecal concentration of gallium, treated versus control mares (FIG. 3) [9]: significant increase | treated mares with positive airborne samples (R. equi [10]): 2 of 10

Cc1occc(=O)c1[O-].Cc1occc(=O)c1[O-].Cc1occc(=O)c1[O-].[Ga+3] [Gallium maltolate]
cumulative incidence of R equi pneumonia, control versus treated groups (R equi): no significant differences | gallium serum concentration [11]: increased
